Laboratory results taken from ChEMBL document CHEMBL2331515, “Design, synthesis, and pharmacological characterization of novel endomorphin-1 analogues as extremely potent μ-opioid agonists” (J Med Chem, 2013).
pEC50, pIC50, pKi: −log10 of the molar value. The source made the active and inactive calls. The calls are words filed in the database; no cut-off is given here.

How the values were obtained:
[1] = target: T1, Delta-type opioid receptor (Homo sapiens, UniProt P41143); test: Agonist activity at Myc-tagged delta-type opioid receptor (unknown origin) expressed in HEK293 cells assessed as inhibition of forskolin-stimulated cAMP accumulation after 30 mins by liquid scintillation counting analysis; format: functional, cell-based
T1 sequence (P41143 whole entry): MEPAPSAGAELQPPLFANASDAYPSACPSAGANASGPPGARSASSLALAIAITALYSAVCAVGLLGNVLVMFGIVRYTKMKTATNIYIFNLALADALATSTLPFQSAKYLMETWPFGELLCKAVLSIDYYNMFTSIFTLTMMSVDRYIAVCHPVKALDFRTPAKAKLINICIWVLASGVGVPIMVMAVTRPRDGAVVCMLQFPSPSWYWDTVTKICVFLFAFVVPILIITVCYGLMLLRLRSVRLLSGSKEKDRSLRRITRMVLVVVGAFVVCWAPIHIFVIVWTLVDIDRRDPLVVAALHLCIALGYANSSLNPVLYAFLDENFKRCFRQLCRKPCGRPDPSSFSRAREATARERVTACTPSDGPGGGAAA

Mu-type opioid receptor [2] = target: T2, Mu-type opioid receptor (Homo sapiens, UniProt P35372); test: Agonist activity at FLAG-tagged mu-type opioid receptor (unknown origin) expressed in HEK293 cells assessed as inhibition of forskolin-stimulated cAMP accumulation after 30 mins by liquid scintillation counting analysis relative to DAMGO; format: functional, cell-based
T2 sequence (P35372 whole entry): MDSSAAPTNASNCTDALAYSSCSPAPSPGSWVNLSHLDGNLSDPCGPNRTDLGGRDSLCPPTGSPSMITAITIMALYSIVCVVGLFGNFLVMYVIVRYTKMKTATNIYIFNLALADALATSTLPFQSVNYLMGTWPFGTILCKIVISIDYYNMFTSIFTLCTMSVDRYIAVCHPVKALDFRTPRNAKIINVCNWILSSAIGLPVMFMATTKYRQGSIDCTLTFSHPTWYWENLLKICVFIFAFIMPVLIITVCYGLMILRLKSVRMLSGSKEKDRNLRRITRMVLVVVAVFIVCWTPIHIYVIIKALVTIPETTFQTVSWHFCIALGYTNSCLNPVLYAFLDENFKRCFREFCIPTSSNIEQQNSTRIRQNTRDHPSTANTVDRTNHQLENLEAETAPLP

Mu-type opioid receptor [3] = target: T2, Mu-type opioid receptor; test: Agonist activity at FLAG-tagged mu-type opioid receptor (unknown origin) expressed in HEK293 cells assessed as inhibition of forskolin-stimulated cAMP accumulation after 30 mins by liquid scintillation counting analysis; format: functional, cell-based
[4] = target: Mu-type opioid receptor (Mus musculus) (UniProt P42866); test: Agonist activity at mu-type opioid receptor in Kunming mouse vas deferens assessed as inhibition of electrically evoked muscle contraction in presence of naltrindole
Mu-type opioid receptor (Mus musculus), sequence (P42866 whole entry): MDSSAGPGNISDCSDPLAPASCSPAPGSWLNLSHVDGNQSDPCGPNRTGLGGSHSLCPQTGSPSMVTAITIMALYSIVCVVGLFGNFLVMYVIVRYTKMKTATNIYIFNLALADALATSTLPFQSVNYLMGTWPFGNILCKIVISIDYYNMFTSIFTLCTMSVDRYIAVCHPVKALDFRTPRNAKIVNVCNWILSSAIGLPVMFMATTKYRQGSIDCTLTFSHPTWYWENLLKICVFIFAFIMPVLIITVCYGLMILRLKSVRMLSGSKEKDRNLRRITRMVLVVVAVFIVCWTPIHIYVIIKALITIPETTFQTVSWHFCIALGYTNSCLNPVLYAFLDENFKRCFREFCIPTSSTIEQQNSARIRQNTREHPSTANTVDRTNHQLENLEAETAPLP

Mu-type opioid receptor [5] = target: Mu-type opioid receptor (Mus musculus, UniProt P42866); test: Agonist activity at mu-type opioid receptor in Kunming mouse vas deferens assessed as inhibition of electrically evoked muscle contraction
Mu-type opioid receptor (Mus musculus, UniProt P42866), sequence (P42866 whole entry): as above

Mu-type opioid receptor [6] = target: Mu-type opioid receptor (Cavia porcellus, UniProt P97266); test: Agonist activity at mu-type opioid receptor in guinea pig ileum assessed as inhibition of electrically evoked muscle contraction; format: tissue-based
Mu-type opioid receptor (Cavia porcellus, UniProt P97266), sequence (P97266 whole entry): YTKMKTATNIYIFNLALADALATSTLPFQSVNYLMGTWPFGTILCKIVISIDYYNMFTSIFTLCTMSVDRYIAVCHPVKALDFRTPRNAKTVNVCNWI

Homo sapiens = organism: Homo sapiens; test: Selectivity ratio of Ki for Myc-tagged delta-type opioid receptor (unknown origin) to Ki for FLAG-tagged mu-type opioid receptor (unknown origin)
[7] = target: T1, Delta-type opioid receptor; test: Displacement of [3H]DPDPE from Myc-tagged delta-type opioid receptor (unknown origin) expressed in HEK293 cells after 60 mins by liquid scintillation counting analysis; format: cell-based
Mu-type opioid receptor [8] = target: T2, Mu-type opioid receptor; test: Displacement of [3H]DAMGO from FLAG-tagged mu-type opioid receptor (unknown origin) expressed in HEK293 cells after 60 mins by liquid scintillation counting analysis; format: cell-based
Mus musculus [9] = test: Antinociceptive activity in icv dosed Kunming mouse assessed as tail withdrawal latency by hot water tail-flick test; format: functional; details: for ED50: central
Mus musculus [10] = test: Antinociceptive activity in Kunming mouse assessed as tail withdrawal latency at 2 mg/kg, iv by hot water tail-flick test in presence of naloxone methiodide; format: functional, organism-based; parameters: dose 2 mg/kg
Mus musculus [11] = test: Antinociceptive activity in Kunming mouse assessed as tail withdrawal latency at 2 mg/kg, iv by hot water tail-flick test in presence of naloxone; format: functional, organism-based; parameters: dose 2 mg/kg
Mus musculus [12] = test: Antinociceptive activity in Kunming mouse assessed as tail withdrawal latency at 2 mg/kg, iv after 15 to 20 mins by hot water tail-flick test relative to control; format: functional, organism-based; parameters: dose 2 mg/kg
Mus musculus [13] = test: Antinociceptive activity in icv dosed Kunming mouse assessed as tail withdrawal latency by hot water tail-flick test in presence of naloxone; format: functional, organism-based
Mus musculus [14] = test: Antinociceptive activity in Kunming mouse assessed as tail withdrawal latency at 0.67 to 20 nmol/kg, icv by hot water tail-flick test; format: functional, organism-based; details: TDE = time-dependent effect
[15] = Half life in mouse brain homogenate by RP-HPLC analysis; format: ADME, tissue-based
Mu-type opioid receptor [16] = target: T2, Mu-type opioid receptor; test: Agonist activity at FLAG-tagged mu-type opioid receptor (unknown origin) expressed in HEK293 cells assessed as stimulation of ERK1/2 phosphorylation at 1 uM after 2 mins by Western blotting analysis; format: cell-based
Mu-type opioid receptor [17] = target: T2, Mu-type opioid receptor; test: Agonist activity at FLAG-tagged mu-type opioid receptor (unknown origin) expressed in HEK293 cells assessed as stimulation of ERK1/2 phosphorylation at 1 uM after 10 mins by Western blotting analysis; format: cell-based; details: TDE = time-dependent effect
[18] = target: T1, Delta-type opioid receptor; test: Agonist activity at Myc-tagged delta-type opioid receptor (unknown origin) expressed in HEK293 cells assessed as inhibition of forskolin-stimulated cAMP accumulation after 30 mins by liquid scintillation counting analysis relative to DAMGO; format: functional, cell-based
[19] = Selectivity ratio of Ki for kappa-type opioid receptor (unknown origin) to Ki for FLAG-tagged mu-type opioid receptor (unknown origin); details: Homo sapiens
[20] = target: Kappa-type opioid receptor (Homo sapiens, UniProt P41145); test: Displacement of [3H]U69,593 from kappa-type opioid receptor (unknown origin) expressed in HEK293 cells after 60 mins by liquid scintillation counting analysis; format: cell-based
Kappa-type opioid receptor, sequence (P41145 whole entry): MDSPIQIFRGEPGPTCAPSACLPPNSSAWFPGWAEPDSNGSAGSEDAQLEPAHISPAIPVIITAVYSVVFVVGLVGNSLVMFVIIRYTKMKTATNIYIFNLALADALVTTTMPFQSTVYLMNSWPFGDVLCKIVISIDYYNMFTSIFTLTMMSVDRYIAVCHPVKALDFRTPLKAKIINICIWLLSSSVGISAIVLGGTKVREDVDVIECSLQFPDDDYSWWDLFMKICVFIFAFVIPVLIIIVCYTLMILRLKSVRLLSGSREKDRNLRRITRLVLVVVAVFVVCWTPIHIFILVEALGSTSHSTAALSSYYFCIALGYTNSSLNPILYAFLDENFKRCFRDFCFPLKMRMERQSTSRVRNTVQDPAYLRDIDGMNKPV

| SMILES | Activity [1] | Emax (Mu-type opioid receptor [2]) | pEC50 (Mu-type opioid receptor [3]) | inhibition (Mu-type opioid receptor [3]) | inhibition [4] | pIC50 (Mu-type opioid receptor [5]) | pIC50 (Mu-type opioid receptor [6]) | Ratio Ki (Homo sapiens) | pKi [7] | pKi (Mu-type opioid receptor [8]) | Activity (Mus musculus [9]) | ED50 (Mus musculus [9]) | Activity (Mus musculus [10]) | Activity (Mus musculus [11]) | Activity (Mus musculus [12]) | Activity (Mus musculus [13]) | Emax [18] | pEC50 [1] | Ratio Ki [19] | pKi [20] | also measured |
| --- | --- | --- | --- | --- | --- | --- | --- | --- | --- | --- | --- | --- | --- | --- | --- | --- | --- | --- | --- | --- | --- |
| C=C(C(N)=O)[C@@H](NC(=O)[C@H](Cc1c[nH]c2ccccc12)NC(=O)[C@@H]1CCN(C(=O)[C@@H](N)Cc2ccc(O)cc2)C1)c1ccccc1 | Dose-dependent effect | 96.8% | 10.40 | Dose-dependent effect | Active | 8.64 | 8.74 | 9490 | 5.55 | 9.53 | – | – | – | – | – | – | – | – | – | – | – |
| C=C(C(N)=O)[C@@H](NC(=O)[C@H](Cc1c[nH]c2ccccc12)NC(=O)[C@@H]1CCN(C(=O)[C@@H](N)Cc2ccc(O)cc2)C1)c1ccco1 | Dose-dependent effect | 96.2% | 11.07 | Dose-dependent effect | Active | 8.54 | 8.78 | 16800 | 5.56 | 9.78 | – | – | – | – | – | – | – | – | – | – | – |
| C=C(C(N)=O)[C@@H](NC(=O)[C@H](Cc1c[nH]c2ccccc12)NC(=O)[C@H]1CCN(C(=O)[C@@H](N)Cc2ccc(O)cc2)C1)c1ccccc1 | Dose-dependent effect | 95.5% | 10.24 | Dose-dependent effect | Active | 8.31 | 8.49 | 9720 | 5.25 | 9.24 | – | – | – | – | – | – | – | – | – | – | – |
| C=C(C(N)=O)[C@@H](NC(=O)[C@H](Cc1c[nH]c2ccccc12)NC(=O)[C@H]1CCN(C(=O)[C@@H](N)Cc2c(C)cc(O)cc2C)C1)c1ccco1 | Dose-dependent effect | 98.6% | 12.96 | Dose-dependent effect | Active | 9.02 | 9.08 | 2380 | 7.52 | 10.89 | Dose-dependent effect | 0.00095 µmol/kg | Active | inactive | Active | inactive | 72.2% | 7.33 | 14100 | 6.74 | Activity (Mus musculus [14]): tde; half-life [15]: > 10 h; Activity (Mu-type opioid receptor [16]): Active; Activity (Mu-type opioid receptor [17]): tde |
| C=C(C(N)=O)[C@@H](NC(=O)[C@H](Cc1c[nH]c2ccccc12)NC(=O)[C@H]1CCN(C(=O)[C@@H](N)Cc2c(C)cc(O)cc2C)C1)c1ccccc1 | Dose-dependent effect | 97.1% | 12.97 | Dose-dependent effect | Active | 8.82 | 9.27 | 1380 | 7.72 | 10.86 | Dose-dependent effect | 0.000779 µmol/kg | Active | inactive | Active | inactive | 77.6% | 7.39 | 17500 | 6.62 | Activity (Mus musculus [14]): tde; half-life [15]: > 10 h; Activity (Mu-type opioid receptor [16]): Active; Activity (Mu-type opioid receptor [17]): tde |
| C=C(C(N)=O)[C@@H](NC(=O)[C@H](Cc1c[nH]c2ccccc12)NC(=O)[C@H]1CCN(C(=O)[C@@H](N)Cc2ccc(O)cc2)C1)c1ccco1 | Dose-dependent effect | 94.9% | 10.03 | Dose-dependent effect | Active | 8.31 | 8.09 | 9170 | 5.16 | 9.12 | – | – | – | – | – | – | – | – | – | – | – |
| C=C(C(N)=O)[C@@H](NC(=O)[C@H](Cc1c[nH]c2ccccc12)NC(=O)[C@@H]1CCN(C(=O)[C@@H](N)Cc2c(C)cc(O)cc2C)C1)c1ccccc1 | Dose-dependent effect | 98.9% | – | Dose-dependent effect | Active | 9.39 | 9.65 | 2770 | 7.56 | 11.01 | Dose-dependent effect | 0.000822 µmol/kg | Active | inactive | Active | inactive | 72.1% | 7.32 | 17600 | 6.76 | Activity (Mus musculus [14]): tde; half-life [15]: > 10 h; Activity (Mu-type opioid receptor [16]): Active; Activity (Mu-type opioid receptor [17]): tde |
| C=C(C(=O)O)[C@@H](NC(=O)[C@H](Cc1c[nH]c2ccccc12)NC(=O)[C@@H]1CCCN1C(=O)[C@@H](N)Cc1c(C)cc(O)cc1C)c1ccco1 | Dose-dependent effect | 96.5% | 12.29 | Dose-dependent effect | Active | 9.27 | 9.12 | 548 | 7.65 | 10.39 | – | – | – | – | – | – | 76.3% | 7.31 | 4940 | 6.70 | – |
| CN1CC[C@]23c4c5ccc(O)c4O[C@H]2[C@@H](O)C=C[C@H]3[C@H]1C5 | – | – | – | – | – | – | – | – | – | – | – | – | Active | inactive | Active | – | – | – | – | – | – |
| C=C(C(=O)O)[C@@H](NC(=O)[C@H](Cc1c[nH]c2ccccc12)NC(=O)[C@@H]1CCCN1C(=O)[C@@H](N)Cc1c(C)cc(O)cc1C)c1ccccc1 | Dose-dependent effect | 97.2% | 12.89 | Dose-dependent effect | Active | 9.25 | 9.33 | 795 | 7.59 | 10.49 | – | – | – | – | – | – | 77.5% | 7.29 | 5960 | 6.72 | – |
